# Where “and” joins values, the source holds several entries; their conditions need not be identical. Equal values may be shown once. Read-outs that look alike come from different tables or passages of the source.
# Key:
# [1] = system: RPMI 8226 cells; experiment: PARP and Pro-Caspase 3 cleavage in RPMI 8226 cells (western blot); type: cell-based, human; details: 100 nM; 0, 8 or 24 hours
# Method: Total protein lysates were made and 20 μg of the lysates were then resolved under reducing/denaturing conditions and blotted onto nitrocellulose. The blots were then probed with anti-PARP or anti-caspase 3 antibodies followed by stripping and reprobing with an anti-actin antibody.
# 25 μg of the lysates were then resolved under reducing/denaturing conditions and blotted onto nitrocellulose. The blots were then probed with anti-PARP or anti-caspase 3 antibodies followed by stripping and reprobing with an anti-actin antibody.
# [2] = system: U266; experiment: Cell growth inhibition assay (resazurin, 48 h); type: cell-based; details: Homo sapiens, U-266, 48 h, U266, 48 h
# [3] = target: T1, human erythrocyte 20S proteasomes, chymotrypsin-like activity (Homo sapiens, UniProt P28074); experiment: Chymotrypsin-like activity of human erythrocyte 20S proteasomes; type: biochemical
# T1 construct: Human erythrocyte 20S proteasomes were obtained from BIOMOL (Cat. # SE-221); purchased BIOMOL SE-221; host or cells: human erythrocytes
# [4] = system: NF-κB; experiment: NF-κB-mediated luciferase reporter gene assay, HEK293 NF-κB/Luc cells, TNF-α stimulation; type: cell-based; details: Homo sapiens, HEK293, read-out: EC50, NF-κB-mediated luciferase activity, 1 hr pretreatment, 6 hours TNF-α
# Method: The HEK293 NF-κB/luciferase reporter cell line is a derivative of the human embryonic kidney cell line (ATCC; CRL-1573) and carries a luciferase reporter gene under the regulation of 5× NF-κB binding sites. […] When performing the luciferase assay, the DMEM basal medium was replaced with phenol-red free DMEM basal medium and the G418 was omitted.
# For NF-κB-mediated luciferase assays, HEK293 NF-κB/luciferase cells were seeded at 1.5×10^4 cells/well in 90 μl phenol-red free DMEM complete medium into Corning 3917 white opaque-bottom tissue culture plates. For Formulae II-2, II-4, II-5A and II-18, a 400 μM starting dilution was made in 100% DMSO and this dilution was used to generate an 8-point half log dilution series. […] For formula II-20, a 2.5 mM or 8 mM starting dilution was made in 100% DMSO and the final test concentrations ranged from 6.3 μM to 2.0 nM or 20 μM to 6.3 nM respectively. The plates were returned to the incubator for 1 hour. After 1 hr pretreatment, 10 μl of a 50 ng/ml TNF-α solution, prepared in the phenol-red free DMEM medium was added, and the plates were incubated for an additional 6 hours.
# At the end of the TNF-α stimulation, 100 μl of Steady Lite HTS luciferase reagent (Packard Bioscience) was added to each well and the plates were left undisturbed for 10 min at room temperature before measuring the luciferase activity. The relative luciferase units (RLU) were measured by using a Fusion microplate fluorometer (Packard Bioscience).
# NF-κB inducible luciferase activity was measured at 6 hours.
# [5] = system: DU 145; experiment: Cell growth inhibition assay (resazurin, 48 h); type: cell-based, human
# [6] = system: MDA-MB-231; experiment: Cell growth inhibition assay (resazurin, 48 h); type: cell-based, human; details: MDA-MB-231, 48 h
# [7] = system: Jurkat cells; experiment: Cytotoxicity against Jurkat cells; type: cell-based, human
# [8] = system: p21 and p27; experiment: Western blot of cell cycle regulatory proteins p21 and p27; type: cell-based, human; details: various concentrations, preliminary
# Text: The ubiquitin-proteasome pathway is an essential proteolytic system involved in cell cycle control by regulating the degradation of cyclins and cyclin-dependent kinase (Cdk) inhibitors such as p21 and p27. Pagano, et al., Science 269:682 (1995), Kisselev, et al., Chem Biol 8:739 (2001), King, et al., Science 274:1652 (1996). Furthermore, p21 and p27 protein levels are increased in the presence of proteasome inhibitors. Fukuchi, et al., Biochim Biophys Acta 1451:206 (1999), Takeuchi, et al, Jpn J Cancer Res 93:774 (2002).
# The Western blots presented in FIG. 33 were reprobed using antibodies against p21 and p27 to determine the endogenous level of each protein and anti-Tubulin antibody was used to confirm equal loading of protein.
# [9] = system: HEK293; experiment: Cell growth inhibition assay (resazurin, 48 h); type: cell-based; details: Homo sapiens, HEK293, 48 h
# [10] = target: T2, human erythrocyte proteasomes, Trypsin-like activity (Homo sapiens, UniProt Q99436); experiment: Trypsin-like activity of human erythrocyte proteasomes; type: biochemical
# T2 construct: from tissue; host or cells: human erythrocytes
# [11] = system: NF-κB/Luc 293 cells; experiment: Viability of NF-κB/Luc 293 cells (resazurin, 24 hr); type: cell-based, human; details: ~7 nM
# [12] = system: NCI-H292; experiment: Cell growth inhibition assay (resazurin, 48 h); type: cell-based, human; details: NCI-H292, 48 h
# [13] = system: 60 human tumor cell lines; experiment: NCI screening panel of 60 human tumor cell lines (sulforhodamine B)
compound,measurement,setting,value
"C[C@@]12OC(=O)[C@]1([C@@H](O)[C@@H]1C=CCCC1)NC(=O)[C@@H]2CCCl [Formula II-16, Salinosporamide A]",cleavage of PARP and Pro-caspase 3,[1],cleavage of PARP and Pro-caspase 3 in a time-dependent manner
same,EC50,[2],0.0047 ± 0.0007 µM
same,EC50,[3],~0.003 µM and ~0.004 µM
same,EC50,[4],~0.007 µM
same,% cytotoxicity,[5]; DU 145,75 ± 4%
same,EC50,"[5]; Homo sapiens, DU 145, 48 h",0.037 ± 0.01 µM
same,EC50,[6]; Homo sapiens,0.067 µM
same,EC50,[6],0.087 ± 0.04 µM
same,% max cell kill,[7],97%
same,EC50,[7]; Homo sapiens,0.01 µM
same,p21 and p27 protein levels,[8],elevated
same,EC50,[9],0.047 µM
same,EC50,[10],~0.009 µM
same,cell viability at the NF-κB EC50 concentration,[11],did not affect cell viability
same,EC50,[12]; Homo sapiens,0.097 µM
same,EC50,[12],0.066 ± 0.029 µM
same,GI50,"[13]; 60 cell, 48 h, read-out: mean GI50",< 0.01 µM
same,CC50,"[13]; SK-MEL-28, read-out: LC50",< 0.01 µM
same,CC50,[13]; read-out: LC50,< 0.01 µM

# — patent US7579371B2, “Methods of using [3.2.0] heterocyclic compounds and analogs thereof” (Nereus Pharmaceuticals, Inc., priority 2004, dated 2009)
